Values of other authors as cited in US20240398765A1, “TRANSDERMAL THERAPEUTIC SYSTEM FOR THE TRANSDERMAL ADMINISTRATION OF TIZANIDINE” (LTS LOHMANN THERAPIE-SYSTEME AG, priority 2021, published 2024).
Structures can show the parent of a compound that is named as a salt.

Conditions: background statement, no test described

Row | Structure (SMILES) | permeation through the skin
1 | Clc1ccc2nsnc2c1NC1=NCCN1 [tizanidine in the form of its free base, 5-chloro-4-(2-imidazolin-2-ylamino)-2,1,3-benzothiadiazole] | slightly permeates through the skin
2 | Clc1ccc2nsnc2c1NC1=NCCN1 [tizanidine in the form of its hydrochloride] | does not permeate through the skin
